Consider four compounds from PMC9228282, “Catalytic Properties of Caseinolytic Protease Subunit of Plasmodium knowlesi and Its Inhibition by a Member of δ-Lactone, Hyptolide” (Molecules, 2022).

Where two headings read alike, the source gives them in different places.

Assay [1] deals with T1, caseinolytic protease proteolytic subunit of Plasmodium knowlesi (Pk-ClpP) (Plasmodium knowlesi, UniProt A0A384LAC0).
T1 construct: gene PKNH_0835300
T1 sequence (A0A384LAC0 141-372 limits assumed): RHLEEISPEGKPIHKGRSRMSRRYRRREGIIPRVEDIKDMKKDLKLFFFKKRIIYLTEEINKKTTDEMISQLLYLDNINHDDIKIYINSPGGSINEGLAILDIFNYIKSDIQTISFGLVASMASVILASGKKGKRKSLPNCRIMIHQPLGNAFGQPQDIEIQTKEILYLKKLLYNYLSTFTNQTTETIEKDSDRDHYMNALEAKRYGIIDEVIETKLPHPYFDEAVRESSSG
The assay can be described thus: chromogenic protease assay with N-CBZ-Glycine p-nitrophenyl ester on purified Pk-ClpP. Format: biochemical.

The target in assay [2] is T1, caseinolytic protease proteolytic subunit of Plasmodium knowlesi (Pk-ClpP).
Assay [3] deals with caseinolytic protease proteolytic subunit (ClpP) of Plasmodium knowlesi (Plasmodium knowlesi). Nature of the assay: SEC; purified Pk-ClpP on HiLoad 16/60 Superdex 200pg, 50 mM Tris-HCl pH 8.0, 50 mM NaCl, 0.5 mL/min; size by comparison with protein markers. (In general: In gel filtration, larger molecules generally elute earlier.)

Turning to `O=S(=O)(F)Cc1ccccc1` [PMSF, phenylmethylsulfonyl fluoride, reference compound], the midpoint of inhibition in assay [1], the IC50, lay at 6.9 ± 0.18 nM. For the compound `O=C(CNC(=O)OCc1ccccc1)Oc1ccc([N+](=O)[O-])cc1` [N-CBZ-Glycine p-nitrophenyl ester], the Km in assay [2] stood at 3.07 ± 0.18 µM. Turning to `CC(=O)O[C@H](/C=C\[C@H]1CC=CC(=O)O1)C[C@@H](OC(C)=O)[C@H](C)OC(C)=O` [Hyp, hyptolide], in assay [1] (read-out: IC50), the IC50 turned out to be 17.4 ± 1.44 nM. For the compound “caseinolytic protease proteolytic subunit (ClpP) of Plasmodium knowlesi (enzyme)”, the stoichiometry N in assay [3] stood at 7.

What is called IC50 is the concentration at which inhibition is half-maximal. The term Km denotes the concentration of substrate that gives half-maximal velocity. The term stoichiometry N denotes the number of molecules, sites or subunits per partner or assembly.
